# Results as given in patent US8623377B2, “Joint-homing peptides and uses thereof” (University of Maryland, Baltimore, priority 2011, dated 2014).
# Experiments:
# [1] = test system: adjuvant arthritis in Lewis rats; test: Antiarthritic activity in the adjuvant arthritis (AA) model, arthritic score; type: in vivo, Lewis rat
# Procedure: (§1) FIG. 3A: Group of arthritic Lewis rats (n=4 per group) were injected with a peptide (AD, NQR, or RGD) or PBS i.v. on the days indicated by the arrows either at the onset or just after the onset of arthritis. The its were monitored regularly for the disease severity, presented as “arthritic score”. […] The sections were graded for histopathological features associated with arthritis. B, bone; C, cartilage, JS, joint space; SIC, synovium-infiltrating cells.
# (§2) The synthetic peptide corresponding to the selected phage-encoded peptide was diluted in PBS and injected i.v. into Lewis rats beginning either at the onset or just after the onset of arthritis after Mtb injection. The peptide was injected to rats on alternate days at a dose of 1 or 2 mg/kg body weight. A total of three or four injections were given to each rat. Control animals received an equal volume of PBS. All rats were graded regularly for clinical signs of arthritis (36). The hind paws of these rats were harvested and processed for histopathological examination.
# AA was induced in Lewis rats by immunizing them with 1 mg/rat of heat-killed M. tuberculosis H37Ra (Mtb; Difco) in 200 μL of mineral oil (Sigma-Aldrich) via s.c. injection at the base of the tail. Beginning on day 7 after immunization, the rats were observed regularly for signs of arthritis in the paws. The severity of arthritis was evaluated based on erythema and swelling as described previously. The highest score for each paw was 4, and the total maximum score for each rat was 16. The course of AA in the Lewis rat involved the following phases: incubation (days 0-8), onset (days 9-11), peak (days 15-18), and recovery (days 21-27).
# [2] = test system: leukocyte infiltration into the joints of arthritic rats; test: In vivo migration of PKH67-labeled leukocytes into the joints; design: species or system Lewis rat
# [3] = test system: HUVECs attachment to vitronectin; test: Attachment of HUVECs to vitronectin; type: cell-based, human; settings: peptide 30-800 μg/mL, 1 h on vitronectin-coated wells
# Procedure: HUVECs were first suspended in F-12K medium containing the indicated concentrations of NQR, AK or RGD peptide and then incubated for 1 h in microtiter wells coated with vitronectin. The number of cells that attached to vitronectin was quantified. The results of three independent experiments are shown. *P<0.05, compared with the baseline control.
# The attachment of HUVECs to vitrnectin was quantified as described (37, 38). Microtiter wells were coated overnight at 4° C. with 2 μg/mL of vitronectin (BD Biosciences). These wells were then blocked for 1 h at 37° C. with 10 mg/mL of BSA (Sigma-Aldrich). In parallel, HUVECs (1.5×10^5 cells/mL) suspended in F-12K medium containing 10% FBS were incubated for 15 min at 37° C. with different concentrations (30-800 μg/mL) of NQR, ADK, or RGD peptide. Thereafter, this cell suspension 100 μL/well) was added to the vitronectin-coated wells, followed by incubation at 37° C. for 1 h. After washing, the number of attached cells was determined using crystal violet (Fisher Scientific).
# [4] = test system: Akt; test: VEGF-induced signaling in HUVECs, Western blot p-Akt; type: cell-based, human; settings: peptide 10, 50, 100 μg/mL 1 h, then VEGF 10 ng/mL 20 min
# Text: FIG. 6A: HUVECs were stimulated with VEGF and treated with the indicated concentrations of peptides. Phosphorylated ERK1/2 and Akt, as well as total ERK1/2 and Akt, were detected by Western blot analysis. FIG. 6B: Thereafter, p-ERK1/2 and p-Akt were quantified by densitometry, normalized to total ERK1/2 (left) and Akt (right), respectively, and compared with cells in serum-free medium. The results of a representative experiment from a set of three independent experiments are shown. *P<0.05, compared with the positive control.
# HUVECs were grown in F-12K medium in the presence of endothelial cell growth supplement (ECGS) (BD Biosciences) and 15% FBS. Confluent cells were starved in basal medium (without ECGS and FBS) for 6 h. Then the cells were pretreated for 1 h with different concentrations (10, 50, and 100 μg/mL) of a peptide (NQR, ADK, or RGD) in fresh basal medium, followed by treatment with VEGF (10 ng/mL) for another 20 min. The conditional medium was discarded, and the cells were lysed using a lysis buffer containing protease inhibitors and phosphatase inhibitors. The cell lysate was then centrifuged, and the resulting supernatant was used for analysis of signaling molecules using specific antibodies to human pERK1/2, ERK1/2, pAkt, Akt, and GAPDH (Cell Signaling Technology) by Western blot analysis. The intensity of the bands in the gel was quantified by densitometry. The levels of p-ERK1/2 and p-Akt were normalized to total ERK1/2 and Akt, respectively, and compared with cells in serum-free medium.
# [5] = test system: hind paw joints of arthritic Lewis rats; test: Histopathological evaluation of hind paw joints of arthritic rats; type: in vivo, Lewis rat; settings: H&E-stained hind paw sections
# Procedure: as §1, §2
# Hind paws of rats were harvested, skinned, and fixed with 10% phosphate buffered formalin (Fisher Scientific) for 3-7 d (1). […] Tissue sections (5 μm) were placed on a glass slide, stained with H&E (Sigma-Aldrich), and assessed for morphological changes and cellular infiltrates.
# [6] = test system: LPS-stimulated HUVECs; test: Internalization of FITC-labeled peptide in LPS-stimulated HUVECs; type: cell-based, human
# Procedure: FIG. 2A: Binding of specific phage encoding the peptide NQR or ADK to the vascular endothelium was visualized by immunohistochemical examination of the hind paw section of the rthritic rats using the anti-T7 phage antibody. The binding of phage was tested in the presence or absence of the corresponding synthetic peptide. BV, blood vessel, L, lumen. FIG. 2B: Arthritic rats were injected with specific phage (ADK phage, left; NQR phage, center; or RGD phage, right) in the presence or absence of the corresponding synthetic peptide, and the titer of the phage recovered from the synovial tissue was assessed. *P<0.01. FIG. 2C: CD31-expressing endothelial cells were isolated from arthritic rat joints (upper) or the liver (lower) and stained with DAPI (blue), FITC-labeled peptide NQR (green), or Alexa Fluor 594-labeled anti-rat CD31 antibody (red). Also shown is the staining overlay (merge) of green and red (yellow). The inset is an enlarged view of a single cell; original magnification, 20×. FIG. 2D: LPS-stimulated HUVECs were stained with DAPI and FITC-labeled peptide NQR and observed under a fluorescence microscope, original magnification, 100×.
sequence,measurement,setting,value
"CLDNQRPKC (Synthetic peptide homing to joint in an animal) [NQR peptide, joint-homing phage-derived synthetic peptide]",difference in arthritic score versus PBS/ADK,[1]; from day 15 to day 27 (FIG. 3A center),significant
same,difference in arthritic score versus PBS,[1]; from day 15 to day 27 (FIG. 3A right),significant
same,suppression of the arthritic process,"[1]; i.v. injection around the time of onset of arthritis, 1 or 2 mg/kg on alternate days",suppressed the arthritic process in a dose-dependent manner
same,down-modulation of arthritis,[1]; injected just after the onset of AA,effective in down-modulating arthritis
same,cell type on which the effect on infiltration was more marked,"[2]; CD3+ T cells vs CD11b/c+ myeloid cells, flow cytometry",more marked on CD3+ T cells than on CD11b/c+ myeloid cells
same,leukocyte infiltration into the joints,"[2]; versus nontreated arthritic or ADK-treated arthritic rats, 24 h after cell transfer",significantly less leukocyte infiltration
same,effect on attachment of HUVECs to vitronectin,[3],Neither peptide had any effect
same,effect on VEGF-induced pAkt,[4],had no effect on pAkt
same,joint damage (histopathology) versus PBS-treated arthritic rats,[5],much less damage
same,cellular uptake of peptide,"[6]; FITC-labeled peptide, LPS-stimulated HUVECs",transported across the cell membrane into the cytoplasm and the nucleus
same,time by which most peptide accumulated in the perinuclear area,[6]; after addition to the cells,≤ 45 min
